Measured values: article PMC11251039, “Harnessing cholesterol uptake of malaria parasites for therapeutic applications” (EMBO Molecular Medicine, 2024)
Several values for one entry are separate records, joined by “and”; a condition that tells them apart may be missing. Equal values may be shown once. Read-outs that look alike come from different tables or passages of the source.

System: asexual P. falciparum 3D7 wild-type parasites
Assay: P. falciparum asexual growth inhibition assay (SYBR Safe DNA replication)
Assay type: cell-based, Plasmodium falciparum
Set-up: Figure 5B dose-response source data (growth, replicate values): unit not given here
Description: P. falciparum asexual parasite assays commenced with ring-stage parasites at 1% parasitaemia and 1% haematocrit. 200 nM chloroquine (Sigma C6628) or artesunate (Sigma A3731) was used as a no-growth control. DNA replication (indicating growth) was measured at the specified time using SYBR Safe DNA Gel Stain (Invitrogen 33102) and a fluorescence microplate reader (Smilkstein et al, [2004]; Spry et al, [2013]). […]
Growth and Viability Inhibition Assays:
Plasmodium falciparum Growth Inhibition Assays:
P. falciparum parasites were maintained under routine culture conditions in red blood cells and RPMI 1640-Hepes with Glutamax, supplemented with 10 mM D-glucose, 480 μM hypoxanthine, 20 μg/mL gentamicin, 0.375% (w/v) AlbuMAXTM II (Thermo Fisher 11021029), and 2.5% v/v heat-inactivated human serum (17). Cultures were maintained at 37 °C […]
wildtype parasites except for the ring stage survival assay, as specified. Cultures were synchronised with 5% w/v D-sorbitol (18).
Growth inhibition was investigated according to methods described by Smilkstein et al. (19) with modifications by Spry et al. (20). Compounds or solvent controls (DMSO, ethanol, or ethyl acetate) were serially diluted 2-fold across flat-bottom 96-well plates. Culture media without compound was used as a negative control. 200 nM chloroquine (Sigma C6628) or artesunate (Sigma A3731) was used as a positive control to determine background fluorescence. The parasitaemia of a culture containing predominantly ring stage parasites was counted by Giemsa smear. The parasitaemia was adjusted to 1% by addition of fresh uRBCs and added to the plate at a final haematocrit of 1%, with 200 µL per well. The plates were incubated at 37 °C under humid microaerophilic conditions. After 24, 48, or 72 hours, the plates were transferred to a -18 °C freezer to stop the assay and lyse cells. Plates were thawed and lysate was mixed 1:1 with SYBR Safe DNA Gel Stain (Invitrogen 33102) (final concentration 1/10,000) diluted in lysis buffer (20 mM TRIS, 5 mM EDTA, 0.008% w/v Saponin, 0.08% w/v Triton-X 100, pH 7.5). Fluorescence was detected at 490 nm excitation/ 520 nm emission on a FLUOstar Optima fluorescence plate reader (BMG Labtech).

[1] = Plasmodium falciparum, 3D7, 72 h; read-out: IC50, P. falciparum asexual growth inhibition
[2] = Plasmodium falciparum, 3D7; 24 h, starting at ring stages; read-out: IC50, P. falciparum asexual growth inhibition

COc1cc(NC(C)CCCNC(=O)CCC(=O)O[C@H]2CC[C@@]3(C)C(=CC[C@H]4[C@@H]5CC[C@H]([C@H](C)CCCC(C)C)[C@@]5(C)CC[C@@H]43)C2)c2ncccc2c1 (some centres unmarked) [C-3-PQ]
P. falciparum asexual growth, percentage of control (0.390625000 uM, 24 h, replicate values, source data Fig. 2B; listed as BC64C): 131.7% and 66.76% and 95.56% and 108.4% and 112% and 85% and 101.8% and 112.2% and 92.84% | P. falciparum asexual growth, percentage of control (0.781250000 uM, 24 h, replicate values, source data Fig. 2B; listed as BC64C): 150.2% and 111.9% and 88.57% and 84.46% and 114.9% and 73.34% and 95.38% and 91.75% and 80.98% | P. falciparum asexual growth, percentage of control (1.562500000 uM, 24 h, replicate values, source data Fig. 2B; listed as BC64C): 126.1% and 129.8% and 105.9% and 128.7% and 121.9% and 90.74% and 123.6% and 79.12% and 103.6% | P. falciparum asexual growth, percentage of control (3.125000000 uM, 24 h, replicate values, source data Fig. 2B; listed as BC64C): 126.5% and 121.8% and 108.8% and 133% and 55.06% and 86.31% and 120.7% and 105.6% and 95.15% | P. falciparum asexual growth, percentage of control (6.250000000 uM, 24 h, replicate values, source data Fig. 2B; listed as BC64C): 133.8% and 98.67% and 102.2% and 109% and 94.05% and 103.7% and 108.1% and 76.85% and 81.21% | P. falciparum asexual growth, percentage of control (12.500000000 uM, 24 h, replicate values, source data Fig. 2B; listed as BC64C): 157.5% and 116.3% and 102.8% and 135.3% and 108.6% and 85.91% and 111.9% and 81.39% and 66.81% | P. falciparum asexual growth, percentage of control (25.000000000 uM, 24 h, replicate values, source data Fig. 2B; listed as BC64C): 149.9% and 129.1% and 105.1% and 150.2% and 115.2% and 49.33% and 125.1% and 71.79% and 57.24% | P. falciparum asexual growth, percentage of control (50.000000000 uM, 24 h, replicate values, source data Fig. 2B; listed as BC64C): 150.4% and 131.3% and 98.75% and 124.5% and 117.8% and 89.9% and 146.3% and 135.4% and 89.26% | P. falciparum asexual growth, percentage of control (100.000000000 uM, 24 h, replicate values, source data Fig. 2B; listed as BC64C): 78.34% and 90.49% and 98.72% and 114.4% and 78.89% and 75.44% and 171.9% and 124.7% and 104.9% | Inhibition of parasite growth (24 h): no inhibition of parasite growth up to 100 µM | IC50 [1]: > 200000 nM | IC50 [2]: > 200000 nM

CC(C)CCC[C@@H](C)[C@H]1CC[C@H]2[C@@H]3CC=C4C[C@@H](OC(=O)CCC(=O)OC(C)C)CC[C@]4(C)[C@H]3CC[C@]12C [C-3-link]
P. falciparum asexual growth, percentage of control (0.781250000 uM, 24 h, replicate values, source data Fig. 2B; listed as GGA3): 138.2% and 69.67% and 108.2% and 127.5% and 114.2% and 69.05% and 145.4% and 89.72% and 93.86% | P. falciparum asexual growth, percentage of control (1.562500000 uM, 24 h, replicate values, source data Fig. 2B; listed as GGA3): 130.3% and 104.4% and 98.52% and 110.7% and 113.3% and 87.62% and 145.2% and 92.88% and 49.26% | P. falciparum asexual growth, percentage of control (3.125000000 uM, 24 h, replicate values, source data Fig. 2B; listed as GGA3): 128.1% and 110.6% (2×) and 120.7% and 130.3% and 119.8% and 103.2% and 132.9% and 71.34% | P. falciparum asexual growth, percentage of control (6.250000000 uM, 24 h, replicate values, source data Fig. 2B; listed as GGA3): 93.75% and 68.17% and 50.04% and 136.5% and 109.3% and 87.77% and 130% and 101.8% and 92.88% | P. falciparum asexual growth, percentage of control (12.500000000 uM, 24 h, replicate values, source data Fig. 2B; listed as GGA3): 119.7% and 70.39% and 47.65% and 137.3% and 124.9% and 51.68% and 112.4% and 101.8% and 77.92% | P. falciparum asexual growth, percentage of control (25.000000000 uM, 24 h, replicate values, source data Fig. 2B; listed as GGA3): 123.1% and 134.3% and 128.6% and 112.3% and 97.18% and 95.88% and 133.7% and 5.942% and 77.98% | P. falciparum asexual growth, percentage of control (50.000000000 uM, 24 h, replicate values, source data Fig. 2B; listed as GGA3): 105.1% and 133.6% and 70.07% and 116% and 103% and 74.44% and 77.73% and 97.2% and 107.5% | P. falciparum asexual growth, percentage of control (100.000000000 uM, 24 h, replicate values, source data Fig. 2B; listed as GGA3): 147.4% and 120% and 109% and 100.9% and 90.73% and 81.6% and 95.19% and 71.65% and 81.81% | P. falciparum asexual growth, percentage of control (200.000000000 uM, 24 h, replicate values, source data Fig. 2B; listed as GGA3): 125% and 120.9% and 88.35% and 101.9% and 79.2% and 19.96% and 163.3% and 103.1% and 105.4% | Inhibition of parasite growth (24 h): no inhibition of parasite growth up to 200 µM | IC50 [1]: > 200000 nM | IC50 [2]: > 200000 nM

CCN(CC)CCCC(C)Nc1ccnc2cc(Cl)ccc12 (centres unmarked) [Chloroquine, chloroquine, reference compound]
IC50 (Plasmodium falciparum, 3D7, 24 h, read-out: IC50, P. falciparum asexual growth inhibition): 10.9 nM | IC50 (Plasmodium falciparum, 3D7, 48 h, read-out: IC50, P. falciparum asexual growth inhibition): 9.9 nM | IC50 (Plasmodium falciparum, 3D7, 72 h, read-out: IC50, P. falciparum asexual growth inhibition): 9.7 nM

CC(C)CCC[C@@H](C)[C@H]1CC[C@H]2[C@@H]3CC=C4C[C@@H](O)CC[C@]4(C)[C@H]3CC[C@]12C [Cholesterol, cholesterol]
Figure 5B dose-response source data (growth, replicate values) (Concentration 0.1953125 uM; individual replicates): 97.65 and 98.85 and 95.16 and 99.46 and 98.26 and 98.24 and 102.6 and 96.06 and 94.45 | Figure 5B dose-response source data (growth, replicate values) (Concentration 0.390625 uM; individual replicates): 95.8 and 101 and 95.94 and 100.9 and 102.2 and 97.7 and 93.65 and 98.46 and 98.54 and 95.82 and 88.53 and 95.33 and 96.33 and 97.81 and 92.68 | Figure 5B dose-response source data (growth, replicate values) (Concentration 0.78125 uM; individual replicates): 99.57 and 96.48 and 97.66 and 98.24 and 100.6 and 107.5 (2×) and 107.4 and 98.35 and 96.07 and 96.59 and 98.18 and 96.9 and 98.19 and 100.3 and 96.94 and 95.15 and 100.1 and 95.95 and 95.21 and 98.02 and 100 and 96.51 | Figure 5B dose-response source data (growth, replicate values) (Concentration 1.5625 uM; individual replicates): 98.13 and 98.43 and 98.36 and 100.5 and 96.82 and 110.3 and 108.8 and 107.2 and 96.68 and 92.68 and 85.1 and 96.36 and 98.17 and 96.8 and 101.5 and 98.35 and 94.77 and 99.77 and 99.63 and 99.09 and 97.58 and 93.8 and 94.68 | Figure 5B dose-response source data (growth, replicate values) (Concentration 3.125 uM; individual replicates): 99.65 and 95.37 and 96.75 and 101.4 and 107.2 and 106.1 and 106.5 and 104.9 and 98.31 and 99.02 and 98.46 and 95.92 and 100.7 and 98.47 and 104.4 and 98.86 and 101.6 and 91.05 and 95.88 and 95.01 and 101.3 and 96.56 and 97.39 | Figure 5B dose-response source data (growth, replicate values) (Concentration 200 uM; individual replicates): 102.2 and 101.3 and 99.63 | Figure 5B dose-response source data (growth, replicate values) (Concentration 400 uM; individual replicates): 106.3 and 99.95 and 99.03 and 90.17 | IC50 [1]: > 400000 nM
